Experimental data: paper PMC4252588 (FEBS letters, 2014)
Where two headings read alike, the source gives them in different places.

How the values were obtained:
Tulahuen CYP51 [1] = target: T1, Tulahuen CYP51 (Trypanosoma cruzi, UniProt Q7Z1V1); test: Reconstituted CYP51 activity assay, eburicol 14α-demethylation; type: biochemical
Y-CYP51A [2] = target: T2, Y-CYP51A (Trypanosoma cruzi, UniProt Q7Z1V1, P355S); test: Type 1 spectral response, substrate binding
Y-CYP51A [3] = target: T2, Y-CYP51A; test: Reconstituted CYP51 activity assay, eburicol 14α-demethylation; type: biochemical
Tulahuen CYP51 [4] = target: Tulahuen CYP51 (Trypanosoma cruzi, UniProt Q7Z1V1, A9G); test: Type 1 spectral response, substrate binding
L. infantum CYP51 = settings: cited from earlier work
Tulahuen CYP51 [5] = target: T1, Tulahuen CYP51; settings: Tulahuen T. cruzi CYP51; cited from earlier work
T. brucei CYP51 = settings: cited from earlier work
Y-CYP51A [6] = target: T2, Y-CYP51A; test: Type 2 spectral response titration with inhibitors; type: binding; settings: calculated from the Y-CYP51A titration curves; [P450] 0.4 µM
[7] = test system: Y strain T. cruzi amastigotes; test: Cellular infection assay, human stage; type: cell-based, Trypanosoma cruzi
[8] = test system: Tulahuen strain of T. cruzi; settings: mice infected with Tulahuen strain; cited from earlier work
Tulahuen T. cruzi = settings: cells infected by Tulahuen T. cruzi; cited from earlier work
[9] = test system: Y strain T. cruzi epimastigotes; test: Insect stage; type: cell-based, Trypanosoma cruzi; settings: insect stage of Y T. cruzi; 1 µM
[10] = Tulahuen CYP51, inhibitor/enzyme/substrate 1:1:100, 1 h

With C=C(CCC(C)C1CCC2(C)C3=C(CCC12C)C1(C)CCC(O)C(C)(C)C1CC3)C(C)C (stereo not drawn) [Substrate, eburicol] the Turnover number (Tulahuen CYP51 [1]; Tulahuen CYP51) was 5.6±0.3 nmol substrate/nmol P450 /min, the Kd (Y-CYP51A [2]) was 1540 nM and the “ΔA (% low-to-high spin transition)” value (Y-CYP51A [2]; Y-CYP51A) was 48%. For the same molecule, the Turnover number (Y-CYP51A [3]) was 2.0±0.2 nmol substrate/nmol P450 /min, the Kd (Tulahuen CYP51 [4]) was 800 nM and the “ΔA (% low-to-high spin transition)” value (Tulahuen CYP51 [4]; Tulahuen CYP51) was 36%.

For O=C(N[C@@H](Cn1cncn1)c1ccc(Cl)cc1Cl)c1ccc(-c2nnc(-c3ccccc3)o2)cc1 [VNT, (R)-N-(1-(2,4-dichlorophenyl)-2-(1H-1,2,4-triazol-1-yl)ethyl)-4-(5-phenyl-1,3,4-oxadiazol-2-yl)benzamide], the “Inhibition of the enzyme” value (Tulahuen CYP51 [1]; Tulahuen CYP51, equimolar amounts of inhibitor) is given as “completely inhibited”, the “Inhibition at I/E/S molar ratio 1:1:100, one hour reaction” value (Tulahuen CYP51 [1]; [10]) is given as 100% and the “Inhibitory potency” value (L. infantum CYP51) is given as “weaker inhibitory effect”. The “Inhibitory potency” value (Tulahuen CYP51 [5]) was “as potent as VNI”, the “Inhibitory potency” value (T. brucei CYP51) was “weaker inhibitory effect” and the Apparent binding efficiency (Y-CYP51A [6]) was 2.

In the case of O=C(N[C@@H](Cn1ccnc1)c1ccc(Cl)cc1Cl)c1ccc(-c2nnc(-c3ccccc3)o2)cc1 [VNI, (R)-N-(1-(2,4-dichlorophenyl)-2-(1H-imidazol-1-yl)ethyl)-4-(5-phenyl-1,3,4-oxadiazol-2-yl)benzamide], the “Inhibition at I/E/S molar ratio 1:1:100, one hour reaction” value (Tulahuen CYP51 [1]) is reported as 100%, the “Inhibition of the enzyme” value (Tulahuen CYP51 [1]) is reported as “completely inhibited” and the EC50 ([7]; Trypanosoma cruzi, Vero, in Homo sapiens) is reported as over 5 nM. For the same molecule, the “Amastigotes within host cells after treatment” value ([7]; cardiomyoblasts and Vero cells, up to 1 µM) was “some trace of amastigotes being observed”, the Outcome of treatment [8] was “cure both the acute and chronic models of Chagas disease” and the Apparent binding efficiency (Y-CYP51A [6]) was 9. For the same molecule, the “Concentration that completely eradicates the parasite” value (Tulahuen T. cruzi) was 8 nM and the EC50 (Tulahuen T. cruzi) was 1.3 nM.

For O=C(N[C@@H](Cn1ccnc1)c1ccc(-c2ccc(F)cc2)cc1F)c1ccc(-c2nnc(-c3ccccc3)o2)cc1 [VFV, (R)-N-(1-(3,4'-difluorobiphenyl-4-yl)-2-(1H-imidazol-1-yl)ethyl)-4-(5-phenyl-1,3,4-oxadiazol-2-yl)benzamide], the “Inhibition at I/E/S molar ratio 1:1:100, one hour reaction” value (Tulahuen CYP51 [1]; [10]) is listed as 100%, the “Antiparasitic potency compared with VNI” value [9] is listed as “higher antiparasitic potency” and the “Inhibitory potency” value (L. infantum CYP51) is listed as “equally potent”. For the same molecule, the “Antiparasitic potency compared with VNI” value ([7]; human stage of Y T. cruzi, H9C2 cells, 48 h) was “higher antiparasitic potency”, the “Inhibitory potency” value (Tulahuen CYP51 [5]) was “equally potent” and the “Inhibitory potency” value (T. brucei CYP51) was “equally potent”. For the same molecule, the Apparent binding efficiency (Y-CYP51A [6]) was 87.
